US9877949B2, “Anticancer treatment methods involving analogs and derivatives of 3-(2-substituted-ethyl) indole compounds” (TUSKEGEE UNIVERSITY, priority 2013, dated 2018)
“And” between values parts separate entries of the source, which are not always exact repeats. Identical values can stand only once. Like-named read-outs stand apart in the source and are kept apart here.

Key:
luciferase [1] = experiment: ATP-dependent cell viability with CellTiter-Glo kit, competition with cellular ATP; type: cell-based; conditions: 10 μM
Description: (§1) Luciferase reporter assays are dependent on the activity of the luciferase enzyme to catalyze the conversion of luciferin to oxyluciferin in the presence of ATP and oxygen, generating light in the process. Therefore, compounds that may directly interfere with the enzyme activity should be distinguished from those that inhibit the signaling activity reported inside the cells. To test this, a PXR-luciferase reporter system expressed in HepG2 cells was used and a luciferase assay was performed by adding 10 μM BEI-9 to the cells five minutes before measuring luciferase catalyzed reactions. In parallel, ATP-dependent cell viability was also measured using a CellTiter-Glo® kit to examine if BEI-9 would compete with cellular ATP, which is required for the luciferase activity.

SW480 colon cancer cells [2] = experiment: MTT assay of cell viability and proliferation; type: cell-based
Description: SW480 colon cancer cells were treated with solvent DMSO (CONT), staurosporine (STS)—an agent that is known to kill cancer cells—and four select indole derivative compounds. Cell viability and proliferation was examined under a MTT assay protocol. […] The control solvent is shown as in FIG. 1A as the bar corresponding to “CONT.” When treated with only the control solvent, the cancer cells are 100% viable. Yet, according to FIG. 1A, treating cancer cells with 3-(2-bromoethyl) indole reduces cancer cell viability and proliferation by about 60% within 48 hours. As noted in FIG. 1A, 3-(2-bromoethyl) indole is represented by “INDOLE 9.” By comparison, a similar concentration of indole-3-carbinol reduces cell proliferation only by about 30%. As noted in FIG. 1A, indole-3-carbinol is represented by “INDOLE 14.”

SW480 cells [3] = experiment: Scratch wound healing assay; type: cell-based; conditions: SW480, 25 μM, up to 96 hours
Description: Scratch wound healing assay was performed on SW480 cells grown to confluence. Confluent SW480 cells were scratched with a pipette tip to create cell wounds, which were treated with vehicle control solvent (DMSO) and 25 μM 3-(2-bromoethyl) indole. The ability of the cells to migrate and fill the gap created by the scratch was evaluated. […] By comparison, vehicle-treated cells filled the scratch within 96 hours. […] The ability of the cells to migrate and fill the gap was followed by light microscopy imaging at 24-hour intervals. […] The scratch wound is most visible as a clear space at t0. […] Only a few single cells treated with 3-(2-bromoethyl) indole were visible and scattered in the gap. Moreover, there was no evidence of cell division.

SW480 colon cancer cells [4] = experiment: Recovery after wash-out of compound; type: cell-based; conditions: SW480, 25 μM for 48 hours, then four days in fresh medium
Description: To examine if treated cells would recover after the compound was washed out, SW480 colon cancer cells were treated with 25 μM 3-(2-bromoethyl) indole for 48 hours, then the monolayer was rinsed 3 times with culture medium to remove the compound. The cell monolayers were left in the fresh growth medium for four days of further incubation. Results shown in FIG. 10 reveal that the vehicle-treated SW480 cells rapidly grew to full confluency in just 48 hours.

cyclin A = experiment: Immunoblotting of cyclin A protein level; type: cell-based; conditions: SW480, immunoblotting
Description: (§2) Progression through the cell cycle is regulated by cyclins and their enzyme partner, cyclin dependent kinases (CDK). The regulation of the cyclin-CDK pair activity is controlled by synthesis and degradation of the cyclin moiety. Cyclin D1 is one of the regulatory cyclins involved in the G1-S transition of cells, and is a known oncogene. As cyclin D1 is a key regulator of cell cycle progression, levels of cyclin D1 protein in both control cells and treated cells were assessed by immunoblotting. Also assessed were the levels of cyclin A, another cyclin regulating both G1-S as well as G2-M transitions. […] Accordingly, inhibiting the expression of cyclins likely contributes to the observed “freezing” effect described previously.

cyclin D1 = experiment: Immunoblotting of cyclin D1 protein level; type: cell-based; conditions: SW480, immunoblotting
Description: as §2

HCT116 cells [5] = experiment: Microphotograph dose response of proliferation; type: cell-based; conditions: 5 μM and 10 μM
Description: (§3) The activity of 3-(2-bromoethyl) indole on another colon cancer cell line, HCT116, was also tested. […] The absorbance reading at a wavelength of 490 nm is shown on the Y-axis.

SW480 colon cancer cells [6] = experiment: CellTiter-Glo cell viability; type: cell-based; conditions: Homo sapiens; SW480, 12.5 μM; read-out: reduction in cell viability
Description: (§4) Increasing concentrations of 3-(2-bromoethyl) indole (from 12.5 μM to 100 μM) were tested on SW480 colon cancer cells, and viability of the treated cells was measured by the CellTiter-Glo® (Promega® Corporation) method. […] Similarly, dose response examination and cell cycle analysis using variable concentrations of 3-(2-bromoethyl) indole ranging from 12.5 to 100 μM confirms that even doses lower than 50 μM inhibit cell proliferation. Thus, useful embodiments of the present invention provide for a method of inhibiting cancer cell proliferation, comprising treating the cancer cells with 3-(2-bromoethyl) indole with concentrations of greater than or equal to 0.2 μM, or in a range of 1.0 μM to 50.0 μM, or more specifically, from 5.0 μM to 25.0 μM.

SW480 cells [7] = experiment: Microphotographs of cells for signs of apoptosis (membrane blebs); type: cell-based; conditions: for sign of cell apoptosis, single agent: SW480, 25 ng/ml TNFα alone or 5 μM 3-(2-bromoethyl) indole alone
Description: Microphotographs were taken of SW480 cells treated with vehicle control (DMSO) (top left), 25 ng/ml TNFα (top right), 5 μM 3-(2-bromoethyl) indole (bottom left), and a combination of 25 ng/ml TNFα and 5 μM 3-(2-bromoethyl) indole (bottom right).
(§5) Second, it was determined whether cytokine-induced NF-kB activation can be blocked by 3-(2-bromoethyl) indole. In prior studies, SW480-NFL cells were tested and confirmed as being responsive to TNFα, a canonical NF-kB pathway inducer, and various clinical chemotherapeutic drugs. To this end, TNFα was first used to activate NF-kB in these reporter cells. It was examined whether co-treatment would interfere with activation of the NF-kB pathway. SW480-NFL cells were treated with 25 ng/ml TNFα as an activator, and with 0.5 μM, 5 μM, or 10 μM BEI-9 as test compound. […] The effect of such a combination treatment is shown in the […] microphotograph in FIG. 14. Referring to FIG. 14, microphotographs were taken of SW480 cells treated with vehicle control (DMSO) (top left), 25 ng/ml TNFα (top right), 5 μM 3-(2-bromoethyl) indole (bottom left), and a combination of 25 ng/ml TNFα and 5 μM 3-(2-bromoethyl) indole (bottom right). Accordingly, in addition to inhibiting NF-kB activation, the addition of 3-(2-bromoethyl) indole to TNFα treated cells may divert TNF receptor-initiated receptor signaling towards apoptosis.

SW480 cancer cells = experiment: Cell cycle analysis by flow cytometry; type: cell-based
Description: (§6) SW480 colon cancer cells were treated with either vehicle control (DMSO) or 25 μM 3-(2-bromoethyl) indole. […] By comparison, vehicle-treated cells rapidly proliferated and visibly filled the surface on which they were seeded. Microphotographs were taken 24 hours (a and c) and 48 hours (b and d) after the treatments. […] To further examine the possibility of inhibited cell proliferation, cell cycle analysis was performed by flow cytometry on cells that were treated with 50 μM 3-(2-bromoethyl) indole for 24 and 48 hours. […] In fact, the specific effect of treating cells with 3-(2-bromoethyl) was to “freeze” the cell growth during treatment. This is illustrated in FIG. 3.
as §4
It was also examined by flow cytometry whether the combination of CPT and BEI-9 would induce cell apoptosis as measured by accumulation of sub-G1 population. […] Referring to FIG. 17, cell cycle profiles of parental SW480 cells treated with DMSO (a), BEI-9 (b), CPT (c), BEI-9 and CPT co-treatment (d) or 24 hours of CPT followed by 24 hours of only BEI-9 (e) are shown. The short arrow points to the sub-G1 population of cells resulting from the combination treatment.

HCT116 cells [8] = experiment: MTS assay viability index; type: cell-based; conditions: HCT116, variable concentrations
Description: as §3

luciferase [9] = target: T1, luciferase (Photinus pyralis, UniProt P08659); type: cell-based; conditions: HepG2 PXR-luciferase, 10 μM added five minutes before measuring
T1 construct: expressed in transfected cells; host or cells: HepG2
T1 sequence (P08659 whole entry, species assumed): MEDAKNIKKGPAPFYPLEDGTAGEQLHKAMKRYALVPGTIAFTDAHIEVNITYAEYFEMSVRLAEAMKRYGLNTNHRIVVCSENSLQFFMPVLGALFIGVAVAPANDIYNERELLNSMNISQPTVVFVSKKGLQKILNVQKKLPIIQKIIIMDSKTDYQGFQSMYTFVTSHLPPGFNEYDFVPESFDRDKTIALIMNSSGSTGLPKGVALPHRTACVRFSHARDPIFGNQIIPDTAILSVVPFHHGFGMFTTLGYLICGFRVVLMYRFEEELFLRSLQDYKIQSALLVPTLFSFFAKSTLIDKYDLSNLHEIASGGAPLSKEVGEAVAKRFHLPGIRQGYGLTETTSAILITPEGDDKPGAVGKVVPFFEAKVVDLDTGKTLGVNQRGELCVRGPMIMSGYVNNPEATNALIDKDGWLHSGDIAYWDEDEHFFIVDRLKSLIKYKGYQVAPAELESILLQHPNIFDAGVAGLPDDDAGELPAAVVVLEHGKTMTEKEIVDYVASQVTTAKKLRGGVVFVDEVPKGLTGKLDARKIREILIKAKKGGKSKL
Description: as §1

SW480 colon cancer cells [10] = experiment: Microscopic evaluation of cell proliferation; type: cell-based; conditions: SW480, 25 μM, 24 and 48 hours
Description: as §6
Increasing concentrations of 3-(2-bromoethyl) indole (from 12.5 μM to 100 μM) were tested on SW480 colon cancer cells, and viability of the treated cells was measured by the CellTiter-Glo® (Promega® Corporation) method. […] Similarly, dose response examination and cell cycle analysis using variable concentrations of 3-(2-bromoethyl) indole ranging from 12.5 to 100 μM confirms that even doses lower than 50 μM inhibit cell proliferation. […]

NF-kB [11] = experiment: NF-kB luciferase reporter assay in SW480-NFL cells; type: cell-based
Description: One of the regulators of cyclin D1 is the multifunctional transcription factor NF-kB. The effect of 3-(2-bromoethyl) indole on NF-kB signaling was also examined. […] In carrying out the test, NF-kB reporter SW480 cells (SW-NFL) were used. The cells were stably transduced with a construct containing NF-kB-response elements linked to the luciferase gene as the reporter. Previous work has shown that these cells activate NF-kB in response to TNFα, as well as some clinically used chemotherapeutic drugs. As an experimental response to NF-kB activation, these cells express increased amounts of luciferase enzyme, which can be detected by luminescence assay.
First, the effect of 3-(2-bromoethyl) indole and each of the thirteen other indole compounds on the basal levels of luciferase activity was assessed. An equal number of SW480-NFL cells seeded in a 96-well plate were treated with control vehicle (DMSO) or one of the fourteen indole-derivative test compounds. Luciferase enzyme activity was measured 24 hours after the treatment. […] See FIG. 12, where BEI-9 is the 9th indole test sample depicted in the graph.
as §5
In prior art, it has been shown that camptothecin (also referred to herein as “CPT”), one of adjuvant drugs clinically used to treat various types of cancers, activates NF-kB in SW480 reporter cells at peak activating concentrations of 0.5 μM or 1.0 μM. The consequence of NF-kB activation as a result of treatment with adjuvant chemotherapy drugs is still under study. To examine whether a combination of CPT with BEI-9 suppresses a drug-induced NF-kB response in SW480 reporter cells, such cells were treated with 0.5 μM CPT and varying concentrations (0.2 μM-12.5 μM) of BEI-9.

NF-kB [12] = conditions: SW480 reporter cells; cited from earlier work

Molecule: BrCCc1c[nH]c2ccccc12 [3-(2-bromoethyl) indole]
- inhibition of luciferase by competing with cellular ATP (luciferase [1]): does not inhibit luciferase
- reduction of cancer cell viability and proliferation (SW480 colon cancer cells [2]; SW480, within 48 hours, relative to control solvent DMSO): about 60%
- motility, ability to migrate and fill the wound gap (SW480 cells [3]): markedly inhibited the motility
- recovery of cells after wash-out (SW480 colon cancer cells [4]): not able to recover at all
- expression of cyclin A protein (cyclin A): drastically decreased
- expression of cyclin D1 protein (cyclin D1): drastically decreased
- proliferation of HCT116 cells (HCT116 cells [5]): completely stopped the proliferation
- cytotoxicity at 12.5 µM (SW480 colon cancer cells [6]): ~50%
- sign of cell apoptosis, single agent (SW480 cells [7]): fails to indicate any sign of cell apoptosis
- sign of cell apoptosis, combination with TNFα (SW480 cells [7]; SW480, 5 μM compound combined with 25 ng/ml TNFα): appearance of cells with membrane blebs
- cell cycle profile, proliferation (SW480 cancer cells; SW480, 50 μM, 24 and 48 hours): effectively prevents proliferation
- induction of sub-G1 population indicative of apoptosis (SW480 cancer cells; SW480, 24 and 48 hours after treatment): no apparent induction of sub-G1 population
- apoptosis as accumulation of sub-G1 population, sequential treatment (SW480 cancer cells; SW480, CPT for 24 hours followed by BEI-9 for 24 hours): appearance of a distinct sub-G1 population
- doses that inhibit cell proliferation (SW480 cancer cells; SW480, dose response examination and cell cycle analysis, 12.5 to 100 μM): lower than 50 μM
- apoptosis as accumulation of sub-G1 population, co-treatment of CPT and BEI-9 (SW480 cancer cells; SW480, flow cytometry): did not induce apoptosis
- apoptosis as accumulation of sub-G1 population, single agent (SW480 cancer cells; SW480, flow cytometry): did not induce apoptosis
- cell death in cell cycle analysis (SW480 cancer cells; SW480, highest concentration tested 100 μM): Cell death is noticed
- viability index (absorbance 490 nm) (HCT116 cells [8]): decreased the viability index
- direct inhibition of luciferase (luciferase [9]): does not inhibit luciferase
- cell proliferation by microscopic evaluation (SW480 colon cancer cells [10]): failed to multiply
- difference between the effects of 0.5 μM and 5 μM on TNFα-activated NF-kB reporter (NF-kB [11]; SW480-NFL, 25 ng/ml TNFα): over 10 fold
- activation of NF-kB reporter activity by TNFα (NF-kB [11]; SW480-NFL, 25 ng/ml TNFα, 5 μM or 10 μM compound): completely abolished
- basal luciferase reporter activity (NF-kB [11]; SW480-NFL, 24 hours after treatment): reduced the reporter activity
- effect on CPT-induced NF-kB reporter activity (NF-kB [11]; SW480 reporter cells, 0.5 μM CPT, 0.2 μM BEI-9): did not have any noticeable effect
- inhibition of CPT-induced NF-kB response (NF-kB [11]; SW480 reporter cells, 0.5 μM CPT, BEI-9 concentrations greater than 0.8 μM, versus CPT-only): more than 50%

Molecule: COc1ccc2[nH]ccc2c1 [5-methoxyindole, reference compound]
- expression of cyclin A protein (cyclin A): did not exhibit the same beneficial effects
- expression of cyclin D1 protein (cyclin D1): did not exhibit the same beneficial effects

Molecule: CC[C@@]1(O)C(=O)OCc2c1cc1n(c2=O)Cc2cc3ccccc3nc2-1 [camptothecin]
- apoptosis as accumulation of sub-G1 population, single agent (SW480 cancer cells; SW480, flow cytometry): did not induce apoptosis
- peak activating concentrations for NF-kB activation (NF-kB [12]): 0.5 µM and 1.0 µM

Molecule: OCc1c[nH]c2ccccc12 [indole-3-carbinol, reference compound]
- reduction of cancer cell viability and proliferation (SW480 colon cancer cells [2]): about 30%

Molecule: TNFα
- sign of cell apoptosis, single agent (SW480 cells [7]): fails to indicate any sign of cell apoptosis
